Experimental data from patent US11306089B2, “Gamma-carboline compounds for the detection of Tau aggregates” (AC IMMUNE SA, priority 2018, dated 2022).
Marks after values point to notes of the source that are not given here.

How the values were obtained:
[1] = target: amyloid-beta in human Alzheimer disease brain homogenate (Homo sapiens, UniProt P05067); assay: Binding affinity to amyloid-beta in AD brain homogenate (3H-PIB competition); set-up: key to Low affinity to amyloid-beta (IC50 in AD brain homogenate), grade: − poor; ∘ moderate; + good; ++ very good; +++ excellent; conditions: non-radioactive fluorine-19 derivatives; for IC50: human AD brain homogenate
Experimental: Determination of the Binding Affinity to Amyloid-Beta in AD Brain Homogenate 20 μg of human Alzheimer disease brain homogenate was incubated with a dilution series of each test compound (1000 to 0.06 nM) in the presence of 700 Bq of ^3H-labeled beta-amyloid binder PIB. The samples were shaken at 110 rpm for 60 min at 37° C. Samples were then filtered through GF/B 96 well filter plates and washed twice with 200 μL assay buffer (PBS containing 0.1% BSA and 2% DMSO). Thereafter, 40 μL Szintillation cocktail was added and the filter plates were sealed. The counts were then counted using a TopCount (Perkin Elmer). Non-specific signal was determined with samples containing ^3H-labeled beta-amyloid binder in the presence of assay buffer without brain substrate and competitor. Specific binding was calculated by subtracting the non-specific signal from the measured samples signal. The unblocked ^3H-labeled beta-amyloid binder signal was defined as total binding. IC50 values were calculated by Prism V7 (GraphPad) setting total binding to 100%.

[2] = target: Tau in human Alzheimer disease brain homogenate (Homo sapiens, UniProt P10636); assay: Competition binding to Tau in AD brain homogenate (18F-labeled Tau binder); set-up: key to High affinity to Tau (IC50 in AD brain homogenate), grade: − poor; ∘ moderate; + good; ++ very good; +++ excellent; conditions: for IC50 / High affinity to Tau (IC50 in AD brain homogenate), grade: non-radioactive fluorine-19 derivatives
Experimental: Determination of Binding in AD and Healthy Control Brain Homogenates
20 μg of human Alzheimer disease brain homogenate was incubated with a dilution series of each test compound (1000 to 0.06 nM) in the presence of 800 Bq of ^18F-labeled Tau binder. The samples were shaken at 110 rpm for 45 min at 37° C. Samples were then filtered through GF/B 96 well filter plates and washed twice with 300 μL assay buffer (PBS containing 0.1% BSA and 2% DMSO). Thereafter, filter plates were sealed and a Fuji Film Imaging Plate (BAS-SR2025) was placed on top. The imaging plate was analyzed after overnight exposition using a Fuji Film BAS-5000. Non-specific signal was determined with samples containing ^18F-labeled Tau-reference binder in the presence of assay buffer without brain substrate and competitor. Specific binding was calculated by subtracting the non-specific signal from the measured samples signal. The unblocked ^18F-labeled Tau-binder signal was defined as total binding. IC50 values were calculated by Prism V7 (GraphPad) setting total binding to 100%.

MAO-B = target: T1, MAO-B (Homo sapiens, UniProt P27338); assay: Binding affinity to MAO-B in human HC brain homogenate (3H-deprenyl competition); set-up: key to Low affinity to MAO B (IC50 in human HC brain homogenate), grade: − poor; ∘ moderate; + good; ++ very good; +++ excellent; conditions: for IC50: 3H-deprenyl competition
T1 construct: 20 μg of human brain homogenate (without AD pathology); from tissue; host or cells: human brain homogenate without AD pathology
T1 sequence (P27338 1-520): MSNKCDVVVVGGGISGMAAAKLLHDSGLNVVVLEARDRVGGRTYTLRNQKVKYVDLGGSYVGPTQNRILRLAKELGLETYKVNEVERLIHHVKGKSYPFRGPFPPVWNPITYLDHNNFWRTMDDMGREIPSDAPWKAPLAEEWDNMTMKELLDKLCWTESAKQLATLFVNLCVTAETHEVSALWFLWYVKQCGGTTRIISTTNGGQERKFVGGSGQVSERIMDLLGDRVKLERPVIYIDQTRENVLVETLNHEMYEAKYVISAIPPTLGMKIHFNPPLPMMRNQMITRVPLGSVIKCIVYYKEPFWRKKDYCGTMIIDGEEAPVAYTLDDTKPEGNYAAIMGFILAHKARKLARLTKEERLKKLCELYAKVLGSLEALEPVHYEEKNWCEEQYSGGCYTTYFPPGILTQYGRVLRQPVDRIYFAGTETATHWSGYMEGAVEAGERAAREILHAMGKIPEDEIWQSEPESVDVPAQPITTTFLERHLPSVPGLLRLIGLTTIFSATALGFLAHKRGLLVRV
Experimental: Determination of the Binding Affinity to MAO-B in HC Brain Homogenate
(§1) 20 μg of human brain homogenate (without AD pathology) was incubated with a dilution series of each test compound (1000 to 0.06 nM) in the presence of 700 Bq of ^3H-labeled MAO-B binder Deprenyl. The samples were shaken at 110 rpm for 60 min at 37° C. Samples were then filtered through GF/B 96 well filter plates and washed twice with 200 μL assay buffer (PBS containing 0.1% BSA and 2% DMSO). Thereafter, 40 μL Szintillation cocktail was added and the filter plates were sealed. The counts were then counted using a TopCount (Perkin Elmer). Non-specific signal was determined with samples containing ^3H-deprenyl in the presence of assay buffer without brain substrate and competitor. Specific binding was calculated by subtracting the non-specific signal from the measured samples signal. The unblocked ^3H-deprenyl signal was defined as total binding. IC50 values were calculated by Prism V7 (GraphPad) setting total binding to 100%.

MAO-A [3] = target: T2, MAO-A (Mus musculus, UniProt Q64133); assay: Binding affinity to MAO-A in mouse whole brain homogenate (3H-Harmine competition); set-up: key to Low affinity to MAO A (IC50 in mouse brain homogenate), grade: − poor; ∘ moderate; + good; ++ very good; +++ excellent; conditions: for fold higher IC50 than compound 18F-1, MAO A in whole mouse brain homogenate: ratio to 18F-1
T2 construct: 20 μg of mouse whole brain or human brain homogenate; from tissue; host or cells: mouse whole brain homogenate
T2 sequence (Q64133 1-526): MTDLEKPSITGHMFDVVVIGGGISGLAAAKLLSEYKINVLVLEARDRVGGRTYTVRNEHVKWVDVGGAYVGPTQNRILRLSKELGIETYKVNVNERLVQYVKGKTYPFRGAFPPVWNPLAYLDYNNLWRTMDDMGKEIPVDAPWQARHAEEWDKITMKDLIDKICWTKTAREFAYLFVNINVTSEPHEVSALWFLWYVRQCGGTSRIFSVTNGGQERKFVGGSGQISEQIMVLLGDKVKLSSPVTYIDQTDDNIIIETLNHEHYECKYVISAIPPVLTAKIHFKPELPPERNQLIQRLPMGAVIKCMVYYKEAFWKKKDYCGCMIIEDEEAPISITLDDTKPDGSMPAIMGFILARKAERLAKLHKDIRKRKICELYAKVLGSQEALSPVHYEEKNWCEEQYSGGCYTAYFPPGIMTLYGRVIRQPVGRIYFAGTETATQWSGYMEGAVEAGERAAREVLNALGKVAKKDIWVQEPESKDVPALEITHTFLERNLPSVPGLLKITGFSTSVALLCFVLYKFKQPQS
Experimental: (§2) Determination of the Binding Affinity to MAO-A in HC Brain Homogenate
as §1, with “μg of mouse whole brain or human brain” for “μg of human brain”, “(without AD pathology, HC) was incubated” for “(without AD pathology) was incubated”, “of ^3H-labeled MAO-A binder Harmine.” for “of ^3H-labeled MAO-B binder Deprenyl.”, “MAO-A binder Harmine. The samples” for “MAO-B binder Deprenyl. The samples”, “samples containing ^3H-Harmine in the” for “samples containing ^3H-deprenyl in the”, “The unblocked ^3H-Harmine signal was” for “The unblocked ^3H-deprenyl signal was”

MAO-A [4] = target: T3, MAO-A (Homo sapiens, UniProt P21397); assay: Binding affinity to MAO-A in human HC brain homogenate (3H-Harmine competition); set-up: key to Low affinity to MAO A (IC50 in human HC brain homogenate), grade: − poor; ∘ moderate; + good; ++ very good; +++ excellent; conditions: for IC50: human control brain homogenate, 3H-Harmine competition
T3 construct: human brain homogenate (without AD pathology, HC); from tissue; host or cells: human brain homogenate without AD pathology (HC)
T3 sequence (P21397 1-527): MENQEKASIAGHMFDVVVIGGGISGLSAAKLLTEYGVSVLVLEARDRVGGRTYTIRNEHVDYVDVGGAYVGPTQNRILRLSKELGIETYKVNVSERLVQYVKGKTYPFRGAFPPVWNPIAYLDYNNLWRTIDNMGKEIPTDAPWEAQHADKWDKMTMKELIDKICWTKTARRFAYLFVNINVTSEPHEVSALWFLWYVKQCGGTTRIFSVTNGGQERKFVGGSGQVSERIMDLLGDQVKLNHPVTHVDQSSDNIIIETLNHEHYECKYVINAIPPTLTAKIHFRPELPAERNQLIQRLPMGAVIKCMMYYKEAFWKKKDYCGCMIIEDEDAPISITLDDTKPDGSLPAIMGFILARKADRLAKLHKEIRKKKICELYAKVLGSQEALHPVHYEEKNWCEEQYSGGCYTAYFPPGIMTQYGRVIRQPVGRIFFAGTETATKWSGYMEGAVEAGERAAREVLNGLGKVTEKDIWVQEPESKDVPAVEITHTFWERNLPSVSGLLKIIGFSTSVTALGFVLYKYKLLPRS
Experimental: as §2
as §1, with “μg of mouse whole brain or human brain” for “μg of human brain”, “(without AD pathology, HC) was incubated” for “(without AD pathology) was incubated”, “of ^3H-labeled MAO-A binder Harmine.” for “of ^3H-labeled MAO-B binder Deprenyl.”, “MAO-A binder Harmine. The samples” for “MAO-B binder Deprenyl. The samples”, “samples containing ^3H-Harmine in the” for “samples containing ^3H-deprenyl in the”, “The unblocked ^3H-Harmine signal was” for “The unblocked ^3H-deprenyl signal was”

[5] = target: T4, aggregated recombinant human K18 fibrils (Homo sapiens, UniProt P10636); assay: Binding affinity to K18 Tau aggregates (3H-labeled Tau binder competition); set-up: key to High affinity to Tau (IC50 using K18 Tau aggregates), grade: − poor; ∘ moderate; + good; ++ very good; +++ excellent; conditions: non-radioactive fluorine-19 derivatives; for IC50: read-out: IC50 using K18 Tau aggregates
T4 construct: aggregated recombinant human K18 fibrils
Experimental: Determination of the Binding Affinity to K18 Tau Aggregates
200 ng of aggregated recombinant human K18 fibrils were incubated with a dilution series of each test compound (1000 to 0.06 nM) in the presence of 3 nM of ^3H-labeled Tau binder. The samples were shaken at 110 rpm for 60 min at 37° C. Samples were then filtered through GF/B 96 well filter plates and washed twice with 200 μL assay buffer (PBS containing 0.1% BSA and 2% DMSO). Thereafter, 40 μL of MicroScint 40 was added to each well of the filter plate. Filter plates were sealed and then placed shaking at 110 rpm at 37° C. for 15 min. Measurement was done by TopCount NXT HTS (PerkinElmer). Non-specific signal was determined with samples containing ^3H-labeled Tau binder in the presence of 2.5 μM unlabeled Tau-reference binder and K18 fibrils. Specific binding was calculated by subtracting the non-specific signal from the measured samples signal. The unblocked ^3H-labeled Tau-binder signal was defined as total binding. IC50 values were calculated by Prism V7 (GraphPad) setting total binding to 100%.

[6] = Tracer signal in mouse brain homogenate compared to AD brain homogenate; type: binding; set-up: key to High signal to noise (% signal intensity in mouse brain homogenate compared to tracer signal in AD brain homogenate), grade: − poor; ∘ moderate; + good; ++ very good; +++ excellent; conditions: radioactive fluorine-18 derivatives
[7] = Tracer signal in HC brain homogenate compared to AD brain homogenate; type: binding, human; set-up: key to Signal to noise (% signal intensity in HC brain homogenate compared to tracer signal in AD brain homogenate), grade: − poor; ∘ moderate; + good; ++ very good; +++ excellent
[8] = mouse brain homogenate, 3H-Harmine competition
[9] = radioactive fluorine-18 derivatives

T4 sequence (P10636 561-685 limits assumed): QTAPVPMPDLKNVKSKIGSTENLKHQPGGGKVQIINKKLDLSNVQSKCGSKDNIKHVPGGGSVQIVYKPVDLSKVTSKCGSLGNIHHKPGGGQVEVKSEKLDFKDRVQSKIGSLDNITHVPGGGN
Sequence of amyloid-beta in human Alzheimer disease brain homogenate (P05067 672-711 limits assumed): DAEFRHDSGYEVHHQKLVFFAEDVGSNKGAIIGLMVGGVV
Sequence of Tau in human Alzheimer disease brain homogenate (P10636 623-708 limits assumed): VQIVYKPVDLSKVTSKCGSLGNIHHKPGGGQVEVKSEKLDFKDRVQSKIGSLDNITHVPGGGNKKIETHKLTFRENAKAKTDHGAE

Row | SMILES | IC50 [1] | IC50 ([2]; human AD brain homogenate) | IC50 (MAO-B; human HC brain homogenate) | IC50 (MAO-A [3]; [8]) | IC50 (MAO-A [4]) | IC50 [5] | High affinity to Tau (IC50 in AD brain homogenate), grade [2] | Low affinity to MAO A (IC50 in mouse brain homogenate), grade (MAO-A [3]; mouse brain homogenate) | fold higher IC50 than compound 18F-1, MAO A in whole mouse brain homogenate (MAO-A [3]) | further results
1 | Fc1ccc(-c2ccc3c(c2)[nH]c2ccncc23)cn1 [F-1, reference compound] | > 1000 nM | < 2 nM | 78 nM | 4.6 nM | 5.9 nM | – | – | – | – | –
2 | Fc1cc(-c2ccc3c(c2)[nH]c2ccncc23)ccn1 [F-2] | > 1000 nM | < 2 nM | 778 nM | 51.4 nM | 37.2 nM | – | – | – | – | –
3 | Fc1cc(-c2nc3[nH]c4ccncc4c3s2)ccn1 [F-3] | – | – | – | – | – | – | – | – | – | affinity towards tau (in words) ([2]; competition assay, human AD brain homogenate): good affinity; MAO-A binding affinity (in words) (MAO-A [3]; [8]): Low affinity
4 | [18F]c1ccc(-c2ccc3c(c2)[nH]c2ccncc23)cn1 [^18F-1, reference compound] | > 1000 nM | < 2 nM | 78 nM | 4.6 nM | 5.9 nM | 19.6 nM | – | – | – | –
5 | [18F]c1cc(-c2ccc3c(c2)[nH]c2ccncc23)ccn1 [^18F-2] | > 1000 nM | < 2 nM | 778 nM | 51.4 nM | 37.2 nM | 3 nM | +++ | ∘ | 11 fold | Low affinity to amyloid-beta (IC50 in AD brain homogenate), grade ([1]; AD brain homogenate): +++^a); High affinity to Tau (IC50 using K18 Tau aggregates), grade ([5]; K18 Tau aggregates): ++; Low affinity to MAO B (IC50 in human HC brain homogenate), grade (MAO-B; human HC brain homogenate): ++; fold higher IC50 than compound 18F-1, MAO B in HC brain homogenate (MAO-B; ratio to 18F-1): > 10 fold; % signal intensity in mouse brain homogenate compared to tracer signal in AD brain homogenate [6]: (57%); High signal to noise (% signal intensity in mouse brain homogenate compared to tracer signal in AD brain homogenate), grade [6]: +; less relative signal in HC brain homogenate ratio than 18F-1 ([7]; binding in AD brain homogenate and HC brain homogenate, difference to 18F-1): 19%; % signal intensity in HC brain homogenate compared to tracer signal in AD brain homogenate [7, 9]: (66%); Signal to noise (% signal intensity in HC brain homogenate compared to tracer signal in AD brain homogenate), grade [7, 9]: ∘; Low affinity to MAO A (IC50 in human HC brain homogenate), grade (MAO-A [4]; human HC brain homogenate): ∘; fold higher IC50 than compound 18F-1, MAO A in human control brain homogenate (MAO-A [4]; ratio to 18F-1): 6.3 fold
6 | [18F]c1cc(-c2cc3[nH]c4ccncc4c3s2)ccn1 [^18F-3] | – | 13.4 nM | – | > 1000 nM | – | – | + | +++ | > 100 fold | –
